Measurements published in PubChem BioAssay AID272 (DTP/NCI, 2004).
Inconclusive results are not listed.

System: Lewis lung carcinoma i.m., BDF1 mice, T/C %
Experiment: NCI In Vivo Anticancer Drug Screen. Data for tumor model Lewis Lung Carcinoma (intramuscular) in B6D2F1 (BDF1) mice
Conditions: schedule: Q01DX011 (ip)
Description: The antitumor activity of compounds was measured in mice bearing transplantable tumors. Survival or tumor size were measured and the results are expressed as the measurement made in the treated group (T) divided by the measurement made in the vehicle treated control group (C). The tumor model used in this assay is Lewis Lung Carcinoma (intramuscular) in B6D2F1 (BDF1) mice

[1] = endpoint: median survival time, dose: 62.5 mg/kg/injection, vehicle: saline, higher = longer survival
[2] = endpoint: median survival time, dose: 125.0 mg/kg/injection, vehicle: saline, higher = longer survival

## O=C(C[n+]1cc(Br)cc2ccccc21)c1ccc(O)c(O)c1
endpoint: mean tumor weight (est.), dose: 28.75 mg/kg/injection, vehicle: saline, higher = larger tumour
  T/C: 90 % of control
endpoint: mean tumor weight (est.), dose: 57.5 mg/kg/injection, vehicle: saline, higher = larger tumour
  T/C: 95 % of control
endpoint: mean tumor weight (est.), dose: 115.0 mg/kg/injection, vehicle: saline, higher = larger tumour
  T/C: 63 % of control
endpoint: mean tumor weight (est.), dose: 230.0 mg/kg/injection, vehicle: saline, higher = larger tumour
  T/C: 52 % of control

## CN1Cc2c(ccc3c2OCO3)[C@@H]2[C@H](O)Cc3cc4c(cc3[C@@H]21)OCO4
endpoint: mean tumor weight, dose: 62.5 mg/kg/injection, vehicle: saline, higher = larger tumour
  T/C: 75 % of control
endpoint: mean tumor weight, dose: 125.0 mg/kg/injection, vehicle: saline, higher = larger tumour
  T/C: 47 % of control
endpoint: mean tumor weight, dose: 500.0 mg/kg/injection, vehicle: saline, higher = larger tumour
  T/C: 32 % of control
[1]
  T/C: 91 % of control
[2]
  T/C: 95 % of control
endpoint: median survival time, dose: 500.0 mg/kg/injection, vehicle: saline, higher = longer survival
  T/C: 93 % of control

## CNC(=S)N/N=C/CCC/C=N/NC(=S)NC
endpoint: mean tumor weight (est.), dose: 18.75 mg/kg/injection, vehicle: saline with Tween-80, higher = larger tumour
  T/C: 112 % of control
endpoint: mean tumor weight (est.), dose: 37.5 mg/kg/injection, vehicle: saline with Tween-80, higher = larger tumour
  T/C: 91 % of control
endpoint: mean tumor weight (est.), dose: 75.0 mg/kg/injection, vehicle: saline with Tween-80, higher = larger tumour
  T/C: 53 % of control
endpoint: median survival time, dose: 18.75 mg/kg/injection, vehicle: saline with Tween-80, higher = longer survival
  T/C: 90 % of control
endpoint: median survival time, dose: 37.5 mg/kg/injection, vehicle: saline with Tween-80, higher = longer survival
  T/C: 94 % of control
endpoint: median survival time, dose: 75.0 mg/kg/injection, vehicle: saline with Tween-80, higher = longer survival
  T/C: 102 % of control

## O=C1NC(c2cccc3ccccc23)Nc2ccccc21 (stereo not given)
endpoint: mean tumor weight, dose: 15.6 mg/kg/injection, vehicle: saline with Tween-80, higher = larger tumour
  T/C: 86 % of control
endpoint: mean tumor weight, dose: 31.2 mg/kg/injection, vehicle: saline with Tween-80, higher = larger tumour
  T/C: 80 % of control
endpoint: mean tumor weight, dose: 62.5 mg/kg/injection, vehicle: saline with Tween-80, higher = larger tumour
  T/C: 90 % of control
endpoint: mean tumor weight, dose: 125.0 mg/kg/injection, vehicle: saline with Tween-80, higher = larger tumour
  T/C: 67 % of control
endpoint: median survival time, dose: 15.6 mg/kg/injection, vehicle: saline, higher = longer survival
  T/C: 102 % of control
endpoint: median survival time, dose: 31.2 mg/kg/injection, vehicle: saline, higher = longer survival
  T/C: 119 % of control
[1]
  T/C: 114 % of control
[2]
  T/C: 114 % of control

## O=[N+]([O-])c1cc([N+](=O)[O-])c(Nn2c3ccccc3c3ccccc32)c([N+](=O)[O-])c1
endpoint: median survival time, dose: 12.5 mg/kg/injection, vehicle: saline with Tween-80, higher = longer survival
  T/C: 97 % of control
endpoint: median survival time, dose: 25.0 mg/kg/injection, vehicle: saline with Tween-80, higher = longer survival
  T/C: 102 % of control
endpoint: median survival time, dose: 50.0 mg/kg/injection, vehicle: saline with Tween-80, higher = longer survival
  T/C: 108 % of control

## Cc1c2ccncc2c(C)c2c1[nH]c1ccccc12
endpoint: median survival time, dose: 1.56 mg/kg/injection, vehicle: water, higher = longer survival
  T/C: 100 % of control
endpoint: median survival time, dose: 3.12 mg/kg/injection, vehicle: water, higher = longer survival
  T/C: 100 % of control
endpoint: median survival time, dose: 6.25 mg/kg/injection, vehicle: water, higher = longer survival
  T/C: 108 % of control

## CCN(CCO)CCNc1ccc(C)c2sc3ccccc3c(=O)c12
endpoint: mean tumor weight (est.), dose: 21.0 mg/kg/injection, vehicle: saline, higher = larger tumour
  T/C: 69 % of control
endpoint: mean tumor weight (est.), dose: 42.0 mg/kg/injection, vehicle: saline, higher = larger tumour
  T/C: 44 % of control
endpoint: median survival time, dose: 21.0 mg/kg/injection, vehicle: saline, higher = longer survival
  T/C: 104 % of control
endpoint: median survival time, dose: 42.0 mg/kg/injection, vehicle: saline, higher = longer survival
  T/C: 110 % of control

## Cc1c2c(ccc3ccccc32)c[n+]2ccccc12
endpoint: mean tumor weight (est.), dose: 2.5 mg/kg/injection, vehicle: saline, higher = larger tumour
  T/C: 60 % of control
endpoint: mean tumor weight (est.), dose: 5.0 mg/kg/injection, vehicle: saline, higher = larger tumour
  T/C: 112 % of control
endpoint: mean tumor weight (est.), dose: 10.0 mg/kg/injection, vehicle: saline, higher = larger tumour
  T/C: 65 % of control
endpoint: median survival time, dose: 2.5 mg/kg/injection, vehicle: saline, higher = longer survival
  T/C: 107 % of control
endpoint: median survival time, dose: 5.0 mg/kg/injection, vehicle: saline, higher = longer survival
  T/C: 92 % of control
endpoint: median survival time, dose: 10.0 mg/kg/injection, vehicle: saline, higher = longer survival
  T/C: 94 % of control
